Results as given in patent publication US20250051375A1, “ANTI-HIV COMPOUNDS” (Gilead Sciences, Inc., priority 2023, published 2025).
Values after ≈ are worked out from the molar mass of the structure shown.

What was measured:
HIV-1 IIIB strain = assay: MT-4 HIV Wild Type Virus Infection Assay (IIIB Virus); assay type: cell-based; details: Human immunodeficiency virus 1, IIIB, MT4, 120 h, MT-4 cells acutely infected with HIV-1 IIIB, 5 day incubation, Cell-titer glo
Outline: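 MT-4 cells at 2×10^6 cells/ml in RPMI/10% FBS were acutely infected with HIV-1 IIIB for 1 h at 37° C, diluted 25× and added to serially diluted compounds. After 5 days at 37° C, viability read by CellTiter-Glo luminescence; EC50 from dose-response curves.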

[1] = target: bovine intestinal alkaline phosphatase (Bos taurus (Bovine), UniProt P19111); assay: BiALP: conversion by bovine intestinal alkaline phosphatase; assay type: in vitro ADME; details: 2 μM substrate, 100 ng/mL iALP, Tris pH 7.8, 37° C., 60 minutes
Sequence of bovine intestinal alkaline phosphatase (P19111 20-506): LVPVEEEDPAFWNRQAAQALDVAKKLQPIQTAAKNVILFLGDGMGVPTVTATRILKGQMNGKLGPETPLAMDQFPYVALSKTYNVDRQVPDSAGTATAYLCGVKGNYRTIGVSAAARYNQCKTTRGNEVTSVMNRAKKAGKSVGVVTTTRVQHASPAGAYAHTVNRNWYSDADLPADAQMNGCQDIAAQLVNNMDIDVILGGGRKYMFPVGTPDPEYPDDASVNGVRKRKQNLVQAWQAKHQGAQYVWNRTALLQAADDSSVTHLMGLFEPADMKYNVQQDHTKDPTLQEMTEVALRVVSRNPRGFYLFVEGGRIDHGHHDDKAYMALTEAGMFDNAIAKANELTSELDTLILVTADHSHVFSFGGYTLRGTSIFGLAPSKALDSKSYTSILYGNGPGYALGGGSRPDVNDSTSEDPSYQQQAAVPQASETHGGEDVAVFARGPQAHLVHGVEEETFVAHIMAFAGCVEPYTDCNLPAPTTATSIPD
Outline: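 Compounds at 2 μM final were incubated 60 min at 37° C in 0.1 M Tris-HCl pH 7.8 with 1 mM MgCl2 and 1 mM ZnCl2, with or without 100 ng/mL iALP (0.01 units/mL). Samples were quenched with acetonitrile/formic acid containing labetalol. Conversion was quantified by LC-MS peak area ratios against a 2 μM product standard.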

[2] = Intestinal S9 Assay (human GI S9); assay type: in vitro ADME; details: 1.0 mg/mL S9 protein; for half-life at 2 μM: human, TRIS pH 7.4, read-out: Human GI S9 T½
Outline: (§1)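 Pooled dog or human intestinal S9 at 1.0 mg/mL protein in TRIS buffer pH 7.4 with ZnCl2 and MgCl2; compound at 2 μM, sampled 0–120 min and quenched. Remaining parent by LC-MS peak area ratio; half-life from first-order exponential decline fit.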

[3] = Intestinal S9 Assay (dog GI S9); assay type: in vitro ADME; details: 1.0 mg/mL S9 protein; for half-life at 2 μM: dog, TRIS pH 7.4, read-out: Dog GI S9 T½
Outline: as §1

PBS Stability Assay = assay type: physicochemical; details: buffer, pH 7.4, 2 μM, phosphate buffered saline pH 7.4; read-out: PBS T½
Outline: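 Test compound at 2 μM final was incubated in PBS, pH 7.4, and sampled at 0, 10, 20, 30, 60 and 120 min into acetonitrile/1% formic acid quench with labetalol internal standard. Remaining compound was quantified by LC-MS peak-area ratio, and half-life came from a first-order exponential fit.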

Solubility in FaSSIF = details: 23 °C, pH 6.5, fassif, thermodynamic from solid
Outline: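 Concentration measured by HPLC-UV after solid compound was dosed at 5 mg/mL into pH 6.5 fasted-state simulated intestinal fluid containing taurocholate and lecithin (4:1 molar) and vortexed.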

Row | SMILES | EC50 (HIV-1 IIIB strain) [nM] | [Compound] [1] [nM] | half-life at 2 μM [2] [h] | half-life at 2 μM [3] [h] | half-life at 2 μM (PBS Stability Assay) [h] | solubility at 2 h (Solubility in FaSSIF) [µg/mL] | biALP Intermediate A or [Amprenavir] (% of total) [1] | [Intermediate A] or [Amprenavir] ([1]; parent formed) [nM] | Human GI S9 [Intermediate A] ([2]; 2 μM, TRIS pH 7.4) [nM] | Human GI S9 [Intermediate A] % ([2]; 2 μM, TRIS pH 7.4) [%] | Dog GI S9 [Intermediate A] ([3]; 2 μM, TRIS pH 7.4) [nM] | Dog GI S9 [Intermediate A] % ([3]; 2 μM, TRIS pH 7.4) [%]
1 | COC(=O)N[C@H](C(=O)N[C@@H](Cc1ccc(C#Cc2cnc(N3CC4CCC(C3)N4C3COC3)nc2)cc1)[C@H](CN(Cc1c(F)cc(-c2ccn(C(F)F)n2)cc1F)NC(=O)[C@@H](NC(=O)OC)C(C)(C)C(F)(F)F)OC(=O)CC(C)(C)c1c(CC(=O)NCc2ccc(C(=O)O)cc2)cc(C)cc1OP(=O)(O)O)C(C)(C)C(F)(F)F [Example 49] | 224 | 2175 | 5.5 | 2.59 | 5.66 | 1220 (≈ 754 µM) | – | – | – | – | – | –
2 | COC(=O)N[C@H](C(=O)N[C@@H](Cc1ccc(C#Cc2cnc(N3CC4CCC(C3)N4C3COC3)nc2)cc1)[C@H](CN(Cc1c(F)cc(-c2ccn(C(F)F)n2)cc1F)NC(=O)[C@@H](NC(=O)OC)C(C)(C)C(F)(F)F)OC(=O)CC(C)(C)c1c(CC(=O)NCc2ccc(C#N)cc2)cc(C)cc1OP(=O)(O)O)C(C)(C)C(F)(F)F [Example 51, (5S,10S,11S,14S)-8-(4-(1-(difluoromethyl)-1H-pyrazol-3-yl)-2,6-difluorobenzyl)-11-(4-((2-(8-(oxetan-3-yl)-3,8-diazabicyclo[3.2.1]octan-3-yl)pyrimidin-5-yl)ethynyl)benzyl)-3,6,13,16-tetraoxo-5,14-bis(1,1,1-trifluoro-2-methylpropan-2-yl)-2,17-dioxa-4,7,8,12,15-pentaazaoctadecan-10-yl 3-(2-(2-((4-cyanobenzyl)amino)-2-oxoethyl)-4-methyl-6-(phosphonooxy)phenyl)-3-methylbutanoate] | 636 | 2331.5 | 7.98 | 8.29 | 6.71 | < 1000 | – | – | – | – | – | –
3 | COC(=O)N[C@H](C(=O)N[C@@H](Cc1ccc(C#Cc2cnc(N3CC4CCC(C3)N4C3COC3)nc2)cc1)[C@H](CN(Cc1c(F)cc(-c2ccn(C(F)F)n2)cc1F)NC(=O)[C@@H](NC(=O)OC)C(C)(C)C(F)(F)F)OC(=O)CC(C)(C)c1c(CC(=O)Nc2ccc(/C=C/C(=O)O)cc2)cc(C)cc1OP(=O)(O)O)C(C)(C)C(F)(F)F [Example 52] | 67.2 | 2131.6 | 5.07 | 2.59 | 5.92 | < 1000 | – | – | – | – | – | –
4 | COC(=O)N[C@H](C(=O)N[C@@H](Cc1ccc(C#Cc2cnc(N3CC4CCC(C3)N4C3COC3)nc2)cc1)[C@H](CN(Cc1c(F)cc(-c2ccn(C(F)F)n2)cc1F)NC(=O)[C@@H](NC(=O)OC)C(C)(C)C(F)(F)F)OC(=O)CC(C)(C)c1c(CC(=O)NCc2cccc(C(=O)O)c2)cc(C)cc1OP(=O)(O)O)C(C)(C)C(F)(F)F [Example 53] | 113 | 2028.9 | 3.4 | 2.41 | 9.76 | < 1000 | – | – | – | – | – | –
5 | COC(=O)N[C@H](C(=O)N[C@@H](Cc1ccc(C#Cc2cnc(N3CC4CCC(C3)N4C3COC3)nc2)cc1)[C@H](CN(Cc1c(F)cc(-c2ccn(C(F)F)n2)cc1F)NC(=O)[C@@H](NC(=O)OC)C(C)(C)C(F)(F)F)OC(=O)CC(C)(C)c1c(CC(=O)N[C@@H](CCC(=O)O)C(=O)O)cc(C)cc1OP(=O)(O)O)C(C)(C)C(F)(F)F [Example 66] | 164 | 1908 | 3.19 | 0.912 | 4.86 | 3890 (≈ 2410 µM) | 9.4 % of total | 197.1 | 367.6 | 26 | 965.9 | 68.6
6 | COC(=O)N[C@H](C(=O)N[C@@H](Cc1ccc(C#Cc2cnc(N3CC4CCC(C3)N4C3COC3)nc2)cc1)[C@H](CN(Cc1c(F)cc(-c2ccn(C(F)F)n2)cc1F)NC(=O)[C@@H](NC(=O)OC)C(C)(C)C(F)(F)F)OC(=O)CC(C)(C)c1c(CC(=O)NCC(=O)O)cc(C)cc1OP(=O)(O)O)C(C)(C)C(F)(F)F [Example 74] | 194 | 2044.2 | 3.93 | 1.03 | 11.5 | 3340 (≈ 2160 µM) | – | – | – | – | – | –
7 | COC(=O)N[C@H](C(=O)N[C@@H](Cc1ccc(C#Cc2cnc(N3CC4CCC(C3)N4C3COC3)nc2)cc1)[C@H](CN(Cc1c(F)cc(-c2ccn(C(F)F)n2)cc1F)NC(=O)[C@@H](NC(=O)OC)C(C)(C)C(F)(F)F)OC(=O)CC(C)(C)c1c(CC(=O)N2CC[C@H](C(=O)O)C2)cc(C)cc1OP(=O)(O)O)C(C)(C)C(F)(F)F [Example 76] | 333 | 1777 | 6.16 | 4.41 | 4.89 | 2230 (≈ 1410 µM) | – | – | – | – | – | –
8 | COC(=O)N[C@H](C(=O)N[C@@H](Cc1ccc(C#Cc2cnc(N3CC4CCC(C3)N4C3COC3)nc2)cc1)[C@H](CN(Cc1c(F)cc(-c2ccn(C(F)F)n2)cc1F)NC(=O)[C@@H](NC(=O)OC)C(C)(C)C(F)(F)F)OC(=O)CC(C)(C)c1c(CC(=O)NCP(=O)(O)O)cc(C)cc1OP(=O)(O)O)C(C)(C)C(F)(F)F [Example 104] | 17.6 | 1622.8 | 2.1 | 0.15 | 4.75 | 2730 (≈ 1730 µM) | – | – | – | – | – | –
9 | COC(=O)N[C@H](C(=O)N[C@@H](Cc1ccc(C#Cc2cnc(N3CC4CCC(C3)N4C3COC3)nc2)cc1)[C@H](CN(Cc1c(F)cc(-c2ccn(C(F)F)n2)cc1F)NC(=O)[C@@H](NC(=O)OC)C(C)(C)C(F)(F)F)OC(=O)CC(C)(C)c1c(CC(=O)Nc2ccc(OC)c(S(=O)(=O)O)c2)cc(C)cc1OP(=O)(O)O)C(C)(C)C(F)(F)F [Example 107] | 317 | 1468.1 | 4.11 | 2.21 | 6.36 | 3440 (≈ 2060 µM) | – | – | – | – | – | –
10 | COC(=O)N[C@H](C(=O)N[C@@H](Cc1ccc(C#Cc2cnc(N3CC4CCC(C3)N4C3COC3)nc2)cc1)[C@H](CN(Cc1c(F)cc(-c2ccn(C(F)F)n2)cc1F)NC(=O)[C@@H](NC(=O)OC)C(C)(C)C(F)(F)F)OC(=O)CC(C)(C)c1c(CC(=O)N2CC[C@@H](C(=O)O)C2)cc(C)cc1OP(=O)(O)O)C(C)(C)C(F)(F)F [Example 112] | 224 | 1708.7 | 9.55 | 6.05 | 6.53 | 3790 (≈ 2400 µM) | – | – | – | – | – | –
